Measurements: patent publication US10294202B2, “Pyrrolidinones as herbicides” (FMC Corporation, priority 2013, dated 2019)
Where two headings read alike, the source gives them in different places.

How the values were obtained:
barnyardgrass = assay: Test A pre-/postemergence herbicide test; format: in vivo, Echinochloa crus-galli; settings: for Barnyardgrass plant response rating: Preemergence, visual rating on 0 to 100 scale (0 no effect, 100 complete control)
Procedure, shortened: (§1)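 Directed soil spray to seeded pots (preemergence) or spray onto one- to two-leaf seedlings 2–10 cm tall (postemergence); loam/sand substrate throughout. Evaluated visually after about 10 days against untreated plants, 0 = no effect, 100 = complete control.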

morningglory = assay: Test C pre-/postemergence herbicide test; format: in vivo, Ipomoea coccinea
Procedure, shortened: (§2)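 Two application timings ran in parallel with identically formulated test chemicals (non-phytotoxic solvent, surfactant included): spray on seeded loam–sand soil, and spray on emerged plants 2 to 18 cm high. Evaluation at 13 to 15 days compared each species with controls, rated from 0 up to 100.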

corn = assay: Test A pre-/postemergence herbicide test; format: in vivo, Zea mays; settings: for Corn plant response rating: Preemergence, visual rating on 0 to 100 scale (0 no effect, 100 complete control)
Procedure, shortened: as §1

wheat (winter wheat) = assay: Test C pre-/postemergence herbicide test; format: in vivo, Triticum aestivum
Excerpt: (§3) Seeds of plant species selected from blackgrass (Alopecurus myosuroides), ryegrass, Italian (Italian ryegrass, Lolium multiflorum), wheat (winter wheat, Triticum aestivum), galium (catchweed bedstraw, Galium aparine), corn (Zea mays), crabgrass, large (large crabgrass, Digitaria sanguinalis), foxtail, giant (giant foxtail, Setaria faberii), johnsongrass (Sorghum halepense), lambsquarters (Chenopodium album), morningglory (Ipomoea coccinea), nutsedge, yellow (yellow nutsedge, Cyperus esculentus), pigweed (Amaranthus retroflexus), ragweed (common ragweed, Ambrosia elatior), soybean (Glycine max), barnyardgrass (Echinochloa crus-galli), oilseed rape (Brassica napus), waterhemp (common waterhemp, Amaranthus rudis), kochia (Kochia scoparia), oat, wild (wild oat, Avena fatua), surinam grass (Brachiaria decumbens), foxtail, green (green foxtail, Setaria viridis), goosegrass (Eleusine indica), bromegrass, downy (downy bromegrass, Bromus tectorum), nightshade (eastern black nightshade, Solanum ptycanthum), cocklebur (common cocklebur, Xanthium strumarium), cupgrass, woolly (woolly cupgrass, Eriochloa villosa), bermudagrass (Cynodon dactylon), sunflower, (common oilseed sunflower, Helianthus annuus), Russian thistle (Salsola kali) and velvetleaf (Abutilon theophrasti) were planted into a blend of loam soil and sand and treated preemergence with test chemicals formulated in a non-phytotoxic solvent mixture which included a surfactant. At the same time, plants selected from these crop and weed species and also barley (winter barley, Hordeum vulgare), […]), chickweed (common chickweed, Stellaria media), deadnettle (henbit deadnettle, Lamium amplexicaule), and canarygrass (littleseed canarygrass, Phalaris minor) were planted in pots containing Redi-Earth® planting medium (Scotts Company, 14111 Scottslawn Road, Marysville, Ohio 43041) comprising spaghnum peat moss, vermiculite, wetting agent and starter nutrients and treated with postemergence applications of test chemicals formulated in the same manner. Plants ranged in height from 2 to 18 cm (1- to 4-leaf stage) for postemergence treatments. Treated plants and controls were maintained in a greenhouse for 13 to 15 days, after which time all species were compared to controls and visually evaluated. Plant response ratings, summarized in Table C, are based on a scale of 0 to 100 where 0 is no effect and 100 is complete control. A dash (-) response means no test result.

nutsedge, yellow = assay: Test C pre-/postemergence herbicide test; format: in vivo, Cyperus esculentus
Procedure, shortened: as §2

lambsquarters = assay: Test C pre-/postemergence herbicide test; format: in vivo, Chenopodium album
Excerpt: as §3

giant foxtail = assay: Test A pre-/postemergence herbicide test; format: in vivo, Setaria faberii; settings: for Foxtail, Giant plant response rating: Preemergence, visual rating on 0 to 100 scale (0 no effect, 100 complete control)
Procedure, shortened: as §1

velvetleaf = assay: Test C pre-/postemergence herbicide test; format: in vivo, Abutilon theophrasti
Procedure, shortened: as §2

foxtail, giant = assay: Test C pre-/postemergence herbicide test; format: in vivo, Setaria faberii
Procedure, shortened: as §2

[1] = Postemergence, 125 g ai/ha, 0 to 100 scale, 0 no effect, 100 complete control
[2] = Postemergence, 500 g ai/ha, 0 to 100 scale (0 no effect, 100 complete control)
[3] = Postemergence, 31 g ai/ha, scale 0 (no effect) to 100 (complete control)
[4] = Postemergence, 62 g ai/ha, scale 0 to 100 (0 no effect, 100 complete control)
[5] = Postemergence, 125 g ai/ha, scale 0 to 100 (0 no effect, 100 complete control)
[6] = Postemergence, 250 g ai/ha, scale 0 to 100 (0 no effect, 100 complete control)
[7] = Preemergence, 31 g ai/ha, scale 0 to 100, 0 is no effect and 100 is complete control
[8] = Preemergence, 62 g ai/ha, scale 0 to 100
[9] = Preemergence, 125 g ai/ha, scale 0 to 100 (0 no effect, 100 complete control)
[10] = preemergence, 500 g ai/ha, 0 to 100 scale

O=C1NCC(c2ccc(F)c(F)c2)C1C(=O)Nc1cccc(F)c1F (racemic) [Compound 101]
95: Foxtail, Giant plant response rating (foxtail, giant; [7]) | Plant response rating, Foxtail, Giant (foxtail, giant; [8])
80: Plant response rating, Barnyardgrass (barnyardgrass; [1]) | Plant response rating, Foxtail, Giant (giant foxtail; [1])
85: Plant response rating, Lambsquarters (lambsquarters; [8])
30: Plant response rating, Morningglory (morningglory; [9]) | Lambsquarters plant response rating (lambsquarters; [7]) | Plant response rating, Velvetleaf (velvetleaf; [6])
70: Plant response rating, Lambsquarters (lambsquarters; [6]) | Plant response rating (scale of 0 to 100), Velvetleaf (velvetleaf; Preemergence, 250 g ai/ha)
35: Plant response rating, Lambsquarters (lambsquarters; [5])
15: Plant response rating, Morningglory (morningglory; [3]) | Plant response rating, Morningglory (morningglory; [4]) | Velvetleaf plant response rating (velvetleaf; [7])
10: Plant response rating, Lambsquarters (lambsquarters; [3]) | Plant response rating, Velvetleaf (velvetleaf; [5])
75: Plant response rating, Foxtail, Giant (foxtail, giant; [5])
98: Plant response rating, Foxtail, Giant (foxtail, giant; [9]) | Plant response rating (scale of 0 to 100), Foxtail, Giant (foxtail, giant; Preemergence, 250 g ai/ha)
50: Plant response rating, Corn (corn; [2]) | Plant response rating, Wheat (wheat (winter wheat); [9])
20: Plant response rating, Wheat (wheat (winter wheat); [8]) | Plant response rating, Foxtail, Giant (foxtail, giant; [4])
5: Plant response rating, Nutsedge, Yellow (nutsedge, yellow; [6]) | Plant response rating, Velvetleaf (velvetleaf; [9])
90: Plant response rating, Barnyardgrass (barnyardgrass; [2]) | Barnyardgrass plant response rating (barnyardgrass; 125 g ai/ha) | Plant response rating, Barnyardgrass (barnyardgrass; preemergence, 500 g ai/ha, 0 to 100 scale (0 no effect, 100 complete control)) | Plant response rating, Lambsquarters (lambsquarters; [9]) | Plant response rating (scale of 0 to 100), Lambsquarters (lambsquarters; Preemergence, 250 g ai/ha) | Plant response rating, Foxtail, Giant (giant foxtail; [2]) | Foxtail, Giant plant response rating (giant foxtail; 125 g ai/ha) | Plant response rating, Foxtail, Giant (giant foxtail; [10]) | Plant response rating, Foxtail, Giant (foxtail, giant; [6])
55: Plant response rating, Morningglory (morningglory; [6]) | Plant response rating (scale of 0 to 100), Wheat (wheat (winter wheat); Preemergence, 250 g ai/ha)
25: Plant response rating, Morningglory (morningglory; [5]) | Plant response rating (scale of 0 to 100), Morningglory (morningglory; Preemergence, 250 g ai/ha) | Plant response rating, Lambsquarters (lambsquarters; [4])
0: Morningglory plant response rating (morningglory; [7]) | Plant response rating, Morningglory (morningglory; [8]) | Plant response rating, Corn (corn; [1]) | Corn plant response rating (corn; 125 g ai/ha) | Plant response rating, Corn (corn; [10]) | Plant response rating, Wheat (wheat (winter wheat); [3]) | Plant response rating, Wheat (wheat (winter wheat); [4]) | Plant response rating, Wheat (wheat (winter wheat); [5]) | Plant response rating, Wheat (wheat (winter wheat); [6]) | Wheat plant response rating (wheat (winter wheat); [7]) | Plant response rating, Nutsedge, Yellow (nutsedge, yellow; [3]) | Plant response rating, Nutsedge, Yellow (nutsedge, yellow; [4]) | Plant response rating, Nutsedge, Yellow (nutsedge, yellow; [5]) | Nutsedge, Yellow plant response rating (nutsedge, yellow; [7]) | Plant response rating, Nutsedge, Yellow (nutsedge, yellow; [8]) | Plant response rating, Nutsedge, Yellow (nutsedge, yellow; [9]) | Plant response rating (scale of 0 to 100), Nutsedge, Yellow (nutsedge, yellow; Preemergence, 250 g ai/ha) | Plant response rating, Velvetleaf (velvetleaf; [3]) | Plant response rating, Velvetleaf (velvetleaf; [4]) | Plant response rating, Velvetleaf (velvetleaf; [8]) | Plant response rating, Foxtail, Giant (foxtail, giant; [3])

O=C1NCCC1C(=O)N(c1ccc(F)c(F)c1)c1ccccc1F (centres unmarked) [Compound 5, N-(3,4-difluorophenyl)-N-(2-fluorophenyl)-2-oxo-3-pyrrolidinecarboxamide]
100: Plant response rating, Foxtail, Giant (foxtail, giant; [8]) | Plant response rating, Foxtail, Giant (foxtail, giant; [9]) | Plant response rating, Foxtail, Giant (foxtail, giant; Preemergence, 250 g ai/ha, scale 0 to 100 (0 no effect, 100 complete control))
80%: pest or weed control at 125 g/ha (giant foxtail; Setaria faberi, post-emergence, 240 h, Postemergence, 125 g ai/ha, 0 to 100 scale, 0 no effect, 100 complete control, read-out: Plant response rating, Foxtail, Giant) | pest or weed control at 500 g/ha (giant foxtail; Setaria faberi, post-emergence, 240 h, Postemergence, 500 g ai/ha, 0 to 100 scale (0 no effect, 100 complete control), read-out: Plant response rating, Foxtail, Giant)
0%: Corn plant response rating (crop injury, 0 = no effect, 100 = complete kill) at 125 g/ha (corn; Zea mays, post-emergence, 240 h, Postemergence, 125 g ai/ha, 0 to 100 scale, 0 no effect, 100 complete control) | Corn plant response rating (crop injury, 0 = no effect, 100 = complete kill) at 500 g/ha (corn; Zea mays, post-emergence, 240 h, Postemergence, 500 g ai/ha, 0 to 100 scale (0 no effect, 100 complete control)) | Corn plant response rating (crop injury, 0 = no effect, 100 = complete kill) at 500 g/ha (corn; Zea mays, pre-emergence, 240 h, preemergence, 500 g ai/ha, 0 to 100 scale)
90%: pest or weed control at 500 g/ha (barnyardgrass; Echinochloa crus-galli, post-emergence, 240 h, Postemergence, 500 g ai/ha, 0 to 100 scale (0 no effect, 100 complete control), read-out: Plant response rating, Barnyardgrass) | pest or weed control at 500 g/ha (barnyardgrass; Echinochloa crus-galli, pre-emergence, 240 h, preemergence, 500 g ai/ha, 0 to 100 scale (0 no effect, 100 complete control), read-out: Plant response rating, Barnyardgrass)
90: Foxtail, Giant plant response rating (giant foxtail; 125 g ai/ha)
60%: pest or weed control at 125 g/ha (barnyardgrass; Echinochloa crus-galli, post-emergence, 240 h, Postemergence, 125 g ai/ha, 0 to 100 scale, 0 no effect, 100 complete control, read-out: Plant response rating, Barnyardgrass)
0: Plant response rating, Morningglory (morningglory; [8]) | Plant response rating, Morningglory (morningglory; [9]) | Corn plant response rating (corn; 125 g ai/ha) | Plant response rating, Wheat (wheat (winter wheat); [8]) | Plant response rating, Nutsedge, Yellow (nutsedge, yellow; [8]) | Plant response rating, Nutsedge, Yellow (nutsedge, yellow; [9]) | Plant response rating, Velvetleaf (velvetleaf; [8]) | Plant response rating, Velvetleaf (velvetleaf; [9])
95: Plant response rating, Lambsquarters (lambsquarters; [8]) | Plant response rating, Lambsquarters (lambsquarters; [9]) | Foxtail, Giant plant response rating (foxtail, giant; Preemergence, 31 g ai/ha, scale 0 to 100 (0 no effect, 100 complete control))
70: Barnyardgrass plant response rating (barnyardgrass; 125 g ai/ha)
5: Plant response rating, Wheat (wheat (winter wheat); [9])
100%: pest or weed control at 500 g/ha (giant foxtail; Setaria faberi, pre-emergence, 240 h, preemergence, 500 g ai/ha, 0 to 100 scale, read-out: Plant response rating, Foxtail, Giant)
